Source: US8536175B2, “Quinoxaline carboxamide derivatives as protein tyrosine kinase inhibitors” (Novartis AG, priority 2008, dated 2013)
pIC50: −log10 of the molar value.

Target: FGFR3 kinase (Homo sapiens (Human), UniProt P22607, K650E)
Assay: FGFR3 kinase inhibition (protein kinase activity assays)
Type: biochemical
Settings: read-out: rating (FGFR3 kinase IC50)
Description: generic assay set-up: Enzyme activities were measured by mixing 10 μL of a 3-fold concentrated compound solution or control with 10 μL of the corresponding substrate mixture (peptidic substrate, ATP and [γ^33P]ATP). The reactions were initiated by addition of 10 μL of a 3-fold concentrated solution of the respective enzyme in assay buffer. […] Filter binding (FB) method: FB assays were carried out in 96-well plates at room temperature for 10 min in a finial volume of 30 μL including the components as indicated in section above. […] After spotting, vacuum was connected and each well rinsed with 200 μL 0.5% H3PO4. Free membranes were removed and washed 4 times on a shaker with 1% H3PO4 and once with ethanol. Membranes were dried and overlaid with addition of 10 μL/well of a scintillation fluid. The plates were eventually sealed and counted in a microplate scintillation counter. IC50 values were calculated by linear regression analysis of the percentage inhibition of the compound.
generic assay set-up: The assay has been run at room temperature on a liquid handling robot. […] After an incubation time of 45 min in the dark, the plates were transferred into a fluorescence reader for counting.
Compounds of formula (I) are assayed to measure their capacity to inhibit FGFR3 kinase as described above.

FGFR3 kinase, sequence (P22607 23-806 K650E): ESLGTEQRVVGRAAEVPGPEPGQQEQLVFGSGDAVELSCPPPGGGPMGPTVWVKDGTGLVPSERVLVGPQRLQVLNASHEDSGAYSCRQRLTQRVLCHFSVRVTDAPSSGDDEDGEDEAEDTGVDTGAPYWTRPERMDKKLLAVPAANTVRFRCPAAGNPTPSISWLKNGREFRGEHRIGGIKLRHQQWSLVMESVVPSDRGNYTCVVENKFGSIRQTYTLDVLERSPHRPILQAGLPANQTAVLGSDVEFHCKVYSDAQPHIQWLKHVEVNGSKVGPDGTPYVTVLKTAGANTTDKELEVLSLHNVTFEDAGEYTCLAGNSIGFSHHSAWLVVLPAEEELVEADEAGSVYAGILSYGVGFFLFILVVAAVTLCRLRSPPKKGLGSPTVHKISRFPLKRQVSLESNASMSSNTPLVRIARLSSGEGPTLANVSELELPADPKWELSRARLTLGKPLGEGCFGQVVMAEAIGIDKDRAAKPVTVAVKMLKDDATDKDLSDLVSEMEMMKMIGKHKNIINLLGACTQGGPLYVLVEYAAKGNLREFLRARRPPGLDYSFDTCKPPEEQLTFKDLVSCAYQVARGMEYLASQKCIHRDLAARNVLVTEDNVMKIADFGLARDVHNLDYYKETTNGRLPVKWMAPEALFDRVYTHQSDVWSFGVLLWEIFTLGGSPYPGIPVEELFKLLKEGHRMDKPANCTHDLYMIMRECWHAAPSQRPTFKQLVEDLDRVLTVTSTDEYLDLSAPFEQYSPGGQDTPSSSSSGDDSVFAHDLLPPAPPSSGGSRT

pIC50 | Structure (SMILES)
6.30 to 7.00 | CCN1CCN(Cc2ccc(NC(=O)c3ccc(-c4c(Cl)c(OC)cc(OC)c4Cl)c4cccnc34)cn2)CC1 [Example 169, 5-(2,6-Dichloro-3,5-dimethoxy-phenyl)-quinoline-8-carboxylic acid [6-(4-ethyl-piperazin-1-ylmethyl)-pyridin-3-yl]-amide]
4.30 to 6.30 | COc1cc(OC)c(Cl)c(-c2ccc(C(=O)Nc3ccc(CN4CCNCC4)nc3)c3ncccc23)c1Cl [Example 171, 5-(2,6-Dichloro-3,5-dimethoxy-phenyl)-quinoline-8-carboxylic acid (6-piperazin-1-ylmethyl-pyridin-3-yl)-amide]
